Legend:
HORMU = test: Post-emergence herbicidal action against HORMU; type: in vivo, Hordeum murinum; settings: application rate 80 g/ha
Experimental: (§1) [table] 2. Post-emergence herbicidal action against harmful plants and crop plant compatibility Seeds of monocotyledonous and dicotyledonous weeds and crop plants are placed in sandy loam in plastic or wood-fibre pots, covered with soil and cultivated in a greenhouse under controlled growth conditions. 2 to 3 weeks after sowing, the test plants are treated at the one-leaf stage. The compounds of the invention, formulated in the form of wettable powders (WP) or as emulsion concentrates (EC), are then sprayed onto the green parts of the plants as aqueous suspension or emulsion with addition of 0.5% additive at a water application rate of 600 l/ha (converted). After the test plants have been kept in the greenhouse under optimum growth conditions for about 3 weeks, the activity of the preparations is rated visually in comparison to untreated controls. For example, 100% activity=the plants have died, 0% activity=like control plants.

LOLRI = test: Post-emergence herbicidal action against LOLRI; type: in vivo, Lolium rigidum; settings: application rate 80 g/ha, rated visually after about 3 weeks
Experimental: as §1

VERPE = test: Post-emergence herbicidal action against VERPE; type: in vivo, Veronica persica; settings: application rate 80 g/ha
Experimental: as §1

AMARE = test: Post-emergence herbicidal action against AMARE; type: in vivo, Amaranthus retroflexus; settings: application rate 80 g/ha, rated visually about 3 weeks after treatment
Experimental: as §1

AVEFA = test: Post-emergence herbicidal action against AVEFA; type: in vivo, Avena fatua; settings: application rate 80 g/ha, rated visually after about 3 weeks
Experimental: as §1

PHBPU = test: Post-emergence herbicidal action against PHBPU; type: in vivo, Pharbitis purpurea; settings: application rate 80 g/ha, rated visually about 3 weeks after treatment
Experimental: as §1

ALOMY = test: Post-emergence herbicidal action against ALOMY; type: in vivo, Alopecurus myosuroides; settings: application rate 80 g/ha, rated visually after about 3 weeks
Experimental: as §1

ABUTH = test: Post-emergence herbicidal action against ABUTH; type: in vivo, Abutilon theophrasti; settings: application rate 80 g/ha, rated visually about 3 weeks after treatment
Experimental: as §1

SETVI = test: Post-emergence herbicidal action against SETVI; type: in vivo, Setaria viridis; settings: application rate 80 g/ha, rated visually after about 3 weeks
Experimental: as §1

ECHCG = test: Post-emergence herbicidal action against ECHCG; type: in vivo, Echinochloa crus-galli; settings: application rate 80 g/ha, rated visually after about 3 weeks
Experimental: as §1

POLCO = test: Post-emergence herbicidal action against POLCO; type: in vivo, Polygonum convolvulus; settings: application rate 80 g/ha, rated visually about 3 weeks after treatment
Experimental: as §1

STEME = test: Post-emergence herbicidal action against STEME; type: in vivo, Stellaria media; settings: application rate 80 g/ha, rated visually about 3 weeks after treatment
Experimental: as §1

Compound | Herbicidal action against [%] HORMU (HORMU) [%] | Herbicidal action against [%] LOLRI (LOLRI) [%] | Herbicidal action against [%] VERPE (VERPE) [%] | Herbicidal action against [%] AMARE (AMARE) [%] | Herbicidal action against [%] AVEFA (AVEFA) [%] | Herbicidal action against [%] PHBPU (PHBPU) [%] | Herbicidal action against [%] ALOMY (ALOMY) [%] | Herbicidal action against [%] ABUTH (ABUTH) [%] | Herbicidal action against [%] SETVI (SETVI) [%] | Herbicidal action against [%] ECHCG (ECHCG) [%] | Herbicidal action against [%] POLCO (POLCO) [%] | Herbicidal action against [%] STEME (STEME) [%]
Cc1cc(C2=NOC(C(=O)NC3C=CC(C(=O)OCCCl)C3)(C(F)(F)F)C2)cc(C(F)(F)F)c1 (mixture of isomers) [Example I-049] | 90 | 90 | 80 | 90 | 90 | 90 | 90 |  |  |  |  | 
C=CC1(C(=O)NC2C=CC(C(=O)NC(C)(C)C(F)(F)F)C2)CC(c2cc(F)cc(F)c2)=NO1 (single isomer, unassigned) [II-24] |  |  | 80 |  |  | 80 |  |  |  |  |  | 
CCOC(=O)C1C=CC(NC(=O)C2(C)CC(c3cccc(C#N)c3)=NO2)C1 (mixture of isomers) [Example I-069] | 90 | 90 | 80 | 80 | 90 |  | 90 | 80 | 80 | 90 | 80 | 80
C=CC1(C(=O)NC2CC=C(C(=O)NS(N)(=O)=O)C2)CC(c2cc(F)cc(F)c2)=NO1 (mixture of isomers) [IV-10] | 90 | 90 |  | 80 | 90 | 90 |  |  |  | 90 |  | 
CC1(C(=O)NC2C=CC(C(=O)OCCCl)C2)CC(c2cccc(C#N)c2)=NO1 (mixture of isomers) [Example I-079] | 100 |  | 90 | 90 | 90 |  | 90 | 80 | 90 | 80 | 90 | 80
CC1(C(=O)NC2C=CC(C(=O)NC(C)(C)C(F)(F)F)C2)CC(c2cc(F)cc(F)c2)=NO1 (mixture of isomers) [II-08] |  |  | 80 |  |  | 90 | 80 |  |  |  |  | 90
COC(=O)[C@@H]1C=C[C@H](NC(=O)C2(C(F)(F)F)CC(c3ccccc3)=NO2)C1 (some centres unmarked) [Example I-026] | 90 | 90 | 80 | 90 | 100 | 80 | 100 |  | 90 | 80 | 80 | 80
CC(C)(C)OC(=O)[C@@H]1C=C[C@H](NC(=O)C2(C)CC(c3cccc(C#N)c3)=NO2)C1 (some centres unmarked) [Example I-095] |  |  | 80 |  |  | 90 | 90 |  |  |  | 90 | 
C=CC1(C(=O)NC2C=CC(C(=O)OC)C2)CC(c2cc(F)cc(F)c2)=NO1 (mixture of isomers) [Example I-035] | 90 | 90 | 80 | 80 | 90 |  | 90 | 80 | 80 | 90 | 80 | 90
O=C(OCC(F)(F)F)[C@@H]1C=C[C@H](NC(=O)C2(C(F)(F)F)CC(c3ccccc3)=NO2)C1 (some centres unmarked) [Example I-030] | 90 | 100 | 80 | 90 | 100 | 80 | 90 |  | 90 | 80 | 90 | 
C=CC1(C(=O)NC2C=CC(C(=O)NS(=O)(=O)CC(=O)OC)C2)CC(c2cc(F)cc(F)c2)=NO1 (mixture of isomers) [II-18] | 90 | 80 | 80 | 80 | 100 | 80 | 100 |  | 90 | 80 |  | 80
C=CC1(C(=O)N[C@H]2C=C[C@H](C(=O)NC(C)(C)C#N)C2)CC(c2cc(F)cc(F)c2)=NO1 (some centres unmarked) [II-19] |  |  |  |  |  | 90 |  |  |  |  |  | 
O=C(C1C=CC(NC(=O)C2(C(F)(F)F)CC(c3cc(F)cc(F)c3)=NO2)C1)N1CCCO1 (mixture of isomers) [II-32] | 90 | 90 | 80 | 80 | 90 |  | 90 | 80 | 80 | 90 | 90 | 90

Source: patent publication US12319664B2, “Herbicidally active 3-phenylisoxazoline-5-carboxamides of cyclopentenylcarboxylic acid derivatives” (Bayer Aktiengesellschaft, priority 2018, dated 2025)
